Reference: ChEMBL document CHEMBL1130399 (J Med Chem, 1997)

Legend:
Cannabinoid receptor [1] = molecular target: T1, Cannabinoid receptor (Rattus norvegicus, UniProt Q9QZN9+P20272); test: Binding affinity towards cannabinoid receptor using [3H]CP-55940 as radioligand in rat brain membrane; assay type: cell membranes
Cannabinoid receptor [2] = molecular target: T1, Cannabinoid receptor; test: Binding affinity towards cannabinoid receptor using [3H]SR-141,716A as radioligand in rat brain membrane; assay type: cell membranes
Mus musculus [3] = species: Mus musculus; test: Maximal degree of inhibition of electrically evoked contractions in a mouse vas deferens assay; assay type: functional
Mus musculus [4] = species: Mus musculus; test: Inhibition of rectal temperature(RT) in mice was determined; assay type: functional
Mus musculus [5] = species: Mus musculus; test: Inhibition of ring immobility(RI) in mice was determined; assay type: functional
Mus musculus [6] = species: Mus musculus; test: Effective concentration that causes twitch inhibition in a mouse vas deferens assay; assay type: functional, organism-based
Mus musculus [7] = species: Mus musculus; test: Inhibition of spontaneous activity(SA) in mice was determined; assay type: functional
Mus musculus [8] = species: Mus musculus; test: Inhibition of tail flick response[…] in mice was determined; assay type: functional
Mus musculus [9] = species: Mus musculus; test: Maximum possible effect for antinociception as measured by the tail flick response (TF); assay type: functional
Mus musculus [10] = species: Mus musculus; test: Maximum possible effect for inhibition of spontaneous activity (SA); assay type: functional
Mus musculus [11] = species: Mus musculus; test: Maximum possible effect for ring immobility (RI); assay type: functional
Mus musculus [12] = species: Mus musculus; test: Hypothermia measured as changes in rectal temperature (RT)

SMILES	Ki (Cannabinoid receptor [1])	Ki (Cannabinoid receptor [2])	Emax (Mus musculus [3])	ED50 (Mus musculus [4])	ED50 (Mus musculus [5])	EC50 (Mus musculus [6])	ED50 (Mus musculus [7])	ED50 (Mus musculus [8])	MPE (Mus musculus [9])	MPE (Mus musculus [10])	MPE (Mus musculus [11])	rectal temperature change (Mus musculus [12])
CCCCCCC(C)(C)/C=C\C/C=C\C/C=C\C/C=C\CCCC(=O)N[C@@H](C)CO	0.005 µM	0.161 µM	67.2%	5 mg/kg	2.5 mg/kg	0.0283 µM	2.6 mg/kg	4.8 mg/kg	100%	90%	80%	-2 °C
CCCCCCC(C)(C)/C=C\C/C=C\C/C=C\C/C=C\CCCC(=O)NCCO	0.0019 µM	0.153 µM	68.3%	2.9 mg/kg	1 mg/kg	0.0597 µM	1.5 mg/kg	1.7 mg/kg	91%	90%	74%	-3.5 °C
CCCCCCC(C)(C)/C=C\C/C=C\C/C=C\C/C=C\CCCC(=O)NCCOC	0.0039 µM	0.054 µM	44.6%	–	5.7 mg/kg	0.036 µM	4 mg/kg	13.3 mg/kg	100%	98%	86%	-1.5 °C
CCCCCCC(C)(C)/C=C\C/C=C\C/C=C\C/C=C\CCCC(=O)NCCC	0.0015 µM	0.031 µM	65.3%	–	–	0.0117 µM	1.2 mg/kg	6.3 mg/kg	–	–	81%	-1.5 °C
CCCCCCC(C)(C)/C=C\C/C=C\C/C=C\C/C=C\CCCC(=O)N[C@H](C)CO	0.0017 µM	0.22 µM	65.2%	6 mg/kg	2.4 mg/kg	0.0606 µM	1.1 mg/kg	1 mg/kg	100%	95%	85%	-2.8 °C
CCCCC/C=C\C/C=C\C/C=C\C/C=C\CCCC(=O)NC[C@H](C)O	0.057 µM	–	71.7%	–	–	0.0361 µM	–	–	–	–	–	–
CCCCC/C=C\C/C=C\C/C=C\C/C=C\CCCC(=O)NCCC	0.0026 µM	0.238 µM	51.2%	–	–	0.0109 µM	–	–	–	–	–	–
CCCCC/C=C\C/C=C\C/C=C\C/C=C\CCCC(=O)NCCOC	0.044 µM	0.466 µM	34%	–	–	0.003 µM	–	–	–	–	–	–
CCCCC/C=C\C/C=C\C/C=C\C/C=C\CCCC(=O)NCCO [ANANDAMIDE]	–	–	100%	–	–	0.0527 µM	–	6.2 mg/kg	–	–	–	–
CCCCC/C=C\C/C=C\C/C=C\C/C=C\CCCC(=O)N[C@H](C)CO [METHANANDAMIDE]	–	–	100%	–	–	0.0101 µM	–	–	–	–	–	–
